Results taken from patent US20130059890A1, “ANTIVIRAL AGENTS” (SYDNEY WEST AREA HEALTH SERVICE, priority 2009, published 2013).
Entries after “also recorded” stand apart in the source; their conditions may differ.

Tested on: HCV (JFH-1) infected Huh7 cells
Settings: 24 hours; for effect on HCV replication (in words): HCV RNA by qPCR (FIG. 9; discussion)
Excerpt: Huh7 cells were infected with the JFH-1 strain of hepatitis C virus (genotype 2a) as previously described in Wakita et al., (2005), “Production of infectious hepatitis C virus in tissue culture from a cloned viral genome”, Nat. Med., 11(7):791-796). Briefly, pJFH-1 plasmids encoding full length HCV genome (provided by T. Wakita, National Institute of Infectious Diseases, Japan) were linearized and HCV RNA was synthesized using T7 RiboMAX™ Express Large Scale RNA Production System (Promega). 10 μg of HCV RNA was added to 1.6×10^6 Huh7 cells suspended in 800 ul PBS buffer. A Bio-Rad Gene Pulser system was used to deliver a single pulse at 0.34 kV, 975 μF, using 4 mm electroporation cuvettes. Cells were cultured at 37° C. in a 5% CO2 atmosphere in Dulbecco's modified Eagle's medium (DMEM) supplemented with 10% fetal bovine serum for 10 days (Gibco).
HCV RNA was amplified from infected Huh7 cells using specific primers targeting the 5′ noncoding region under the following conditions: 10 min at 95° C.; 40 cycles of 94° C. for 15 s and 60° C. for 45 s. Samples were analysed in triplicate and relative expression of HCV RNA normalised to 18s.
JFH-1 infected Huh7 cells cultured in 6 well plates were treated with HU-210 (100 nM), either alone or with increasing concentrations of the antagonists NlDA-41020 or (S)-SLV-319 (1 nM, 10 nM, 100 nM and 1 μM). Untreated cells and cells treated with CB1 antagonist alone (100 nM) were used as controls. After 24 hours cells were harvested, total RNA extracted, and HCV RNA measured by qPCR. Three replicate experiments were performed for each set of conditions and mean values calculated.

Compound	effect on HCV replication (in words)	increase of HCV replication (HU-210 100 nM, HCV RNA by qPCR normalised to 18s (FIG. 7))
CN=C(NS(=O)(=O)c1ccc(Cl)cc1)N1C[C@H](c2ccccc2)C(c2ccc(Cl)cc2)=N1 [(S)-SLV-319, 3-(4-chlorophenyl)-N-[(4-chlorophenyl)sulfonyl]-4,5-dihydro-N′-methyl-4-phenyl-1H-pyrazole-1-carboximidamide]	inhibit HCV replication in a dose-dependent manner; also recorded: inhibited	
CCCCCCC(C)(C)c1cc(O)c2c(c1)OC(C)(C)[C@@H]1CC=C(CO)C[C@@H]21 [HU-210]	stimulated	40%
